Measured values from EP2218450A1, “Memantine for treating bipolar mood disorders resistant to conventional treatments” (Serra, Gino, priority 2009, dated 2010).
Read-outs that look alike come from different tables or passages of the source.

How the values were obtained:
[1] = test system: dopamine receptor sensitization; conditions: cited from earlier work
addictions = conditions: cited from earlier work
[2] = test system: Pervasive development disorders; conditions: five open clinical studies and one case report; cited from earlier work
catatonic schizophrenia = conditions: cited from earlier work
OCD = conditions: cited from earlier work
NMDA glutamate receptor = conditions: compared to more powerful NMDA antagonists such as phencyclidine, ketamine and MK-801; cited from earlier work
depressive symptoms = conditions: cited from earlier work
bipolar patients = test system: bipolar patients
Description: We report, in order to exemplify, the most clinically significant cases in bipolar patients (DSM IV-TR) resistant to hitherto available treatments.
Memantine was administered at 10-30 mg/day (according to the doses used for Alzheimer Disease and in many off-label uses of the drug in other psychiatric disorders) to 18 bipolar patients (mean age 42, range 24-61, SD 11): 13 BP type 1 (11 women and 2 men) and 5 BP type 2 (3 women and 2 men).
The Memantine treatment was added to the ongoing treatment which was left unmodified. The severity of the patients' condition before Memantine, and the change after Memantine addition was evaluated on the GCI-BP Overall Bipolar Illness scale: • GCI-BP Overall Bipolar Illness: Severity • 1. Normal, not ill; • 2. Minimally ill; • 3. Mildly ill; • 4. Moderately ill; • 5. Markedly ill; • 6. Severely ill; • 7. Very severely ill.
All patients have been followed-up for 24 weeks. […] Very much improved • 2. Much improved • 3. […] No change • 5. Minimally worse • 6. Much worse • 7. Very much worse

binge eating disorder = conditions: five obese patients affected by binge eating disorder; cited from earlier work
[3] = at 24 weeks, Memantine 10-30 mg/day added to ongoing treatment, 18 bipolar patients

O=C(O)C1CN(CCCP(=O)(O)O)CCN1 (stereo not drawn) [CPP]
prevention of dopamine D2 receptors sensitization induced by imipramine [1]: fails to pevent

C[C@]12N[C@H](Cc3ccccc31)c1ccccc12 [MK.801]
prevention of dopamine receptor sensitization induced by electroconvulsive shock [1]: completely prevents
prevention of dopamine receptor sensitization induced by imipramine [1]: completely prevents

CC12CC3CC(C)(C1)CC(N)(C3)C2 [Memantine]
benefit in nicotine or cocaine addiction (addictions): no benefit has been detected
symptoms of heroin withdrawal (addictions): effective in reducing the symptoms of heroin withdrawal
symptoms of alcohol withdrawal syndrome (addictions; one study (41)): reduction of the symptoms of alcohol withdrawal syndrome
craving for alcohol (addictions; two studies (39, 40)): reduction in craving for alcohol
alcohol consumption (addictions; two studies (42, 43), in one the effect did not significantly differ from placebo): reduction in alcohol consumption
effect on symptoms [2]: symptomatic improvement
effect in schizophrenia, controlled clinical trial (catatonic schizophrenia; in combination with an atypical antipsychotic): No improvement was observed
effect on symptoms of catatonic schizophrenia (catatonic schizophrenia; three case reports, 10 mg twice a day in two patients, 10 mg per day in the other): improvement in the symptoms
patients with symptomatic improvements (OCD; case reports, three patients with OCD, 5-15 mg a day): Two
patients with symptomatic improvement (OCD; open-label study, out of 14, Memantine 20 mg in combination with SSRIs): 6 patients
affinity for the receptor (NMDA glutamate receptor): low affinity
effect on depressive symptoms (depressive symptoms; patient, 10 mg/die): improvement in the depressive symptoms
effect on depressive symptoms (depressive symptoms; person, 20 mg/die in combination with conventional antidepressant treatment, within a week): improvement in various depressive symptoms
patients very much or much improved (bipolar patients; after 24 weeks of Memantine treatment, 18 bipolar patients): 72.2%
rapid cyclers that reached stability (bipolar patients; among the ten rapid cyclers, 24 weeks): six
patients remained unchanged (score 4), GCI-BP overall Bipolar Illness: Change from preceding phase (bipolar patients; [3]): 3 patients
patients scored 1 (very much improved), GCI-BP overall Bipolar Illness: Change from preceding phase (bipolar patients; [3]): 9 patients
patients scored 2 (much improved), GCI-BP overall Bipolar Illness: Change from preceding phase (bipolar patients; [3]): 4 patients
patients scored 3 (minimally improved), GCI-BP overall Bipolar Illness: Change from preceding phase (bipolar patients; [3]): 2 patients
mean time to improvement (bipolar patients; range 6-132, SD 48,4, Memantine 10-30 mg/day): 55 days
effect on appetite, binge eating and body weight (binge eating disorder): diminished appetite, the disappearance of binge eating (in two out of five patients) and a reduction of body weight
